Results on one compound are retold here after patent US9120774B2 (University of Kansas, priority 2009, dated 2015).

Molecules are shown by their SMILES. Like-named read-outs stand apart in the source and are kept apart here.

Series [1] relates to Hsp90-dependent client protein phospho-AKT in SKBr3 breast cancer cells. Nature of the series: Degradation of phospho-AKT, Western blot in SKBr3 cells. The format is cell-based. As to conditions: 100 μM. How it is done: Total protein concentration of each lysate was determined and equal amounts of protein were run in each lane of the gels. For the graphs shown in FIG. 1, the O.D.'s (optical density) of the Western bands for phospho-AKT were measured, as were the O.D.'s for actin probed as controls on the same blots. To obtain the graphed values, all specific O.D.'s (for Hsp90 clients) were normalized to the respective actin O.D.
Inhibition of Hsp90 results in the degradation of Hsp90-dependent clients via ubiquitination of the unfolded client followed by proteasome-mediated hydrolysis. […] Geldanamycin (GDA, 0.5 μM) was used as a positive control for Hsp90 inhibition.

In series [2] the test system is androgen receptor in LAPC-4 prostate cancer cells. Nature of the series: Western blot of androgen receptor in LAPC-4 cells. The format is cell-based. As to conditions: LAPC-4 cells (wild type androgen receptor), 24 hours. How it is done: FIG. 3 (top panel) is a western blot analysis of prostate cancer LNCaP cells treated with KU-1/A4. The bottom panel is a western blot analysis of prostate cancer LAPC-4 cells incubated with KU-1/A4. Actin was used as a control in both assays. […] Western blot analysis of the effects of KU-1/A4 on Hsp90 client proteins in prostate cancer LNCaP cells. Cells were treated with varying concentrations of KU-1/A4 for 24 hours and probed for the androgen receptor (“AR”), protein kinase […] (“AKT”), Hsp90, and actin.
The steroid hormone receptors are also dependent upon the Hsp90 protein folding machinery for activation and hormone binding. To determine whether KU-1/A4 had similar effects on the androgen receptor, KU-1/A4 was tested in both a mutated androgen receptor-dependent prostate cancer cell line (LNCaP) and a wild type androgen receptor prostate cancer cell line (LAPC-4). More specifically, the prostate cancer cells were grown in RPMI with 10% fetal calf serum in a standard fashion. Once the cells had reached near confluence, they were treated with vehicle (DMSO) or varying concentrations of KU-1/A4 ranging from 10 nm to 100 μM for 24 hours. Cells were harvested and cell lysates prepared. […] More specifically, Western Blot analysis protein concentrations in serum samples were determined by the Pierce BCA protein assay kit according to the manufacturer's protocol. […]

The subject of series [3] is primary cortical neurons exposed to Aβ25-35. Kind of series: Protection against Aβ-induced toxicity in primary neurons (Live-Dead assay). The format is cell-based, rat. As to the method: In this example, the neuroprotective effects of KU-1/A4 were determined in primary neurons derived from embryonic rat brain exposed to Aβ (10 μM) in the presence or absence of the test compound for 48 hours. The percentage of surviving neurons was determined by labeling with the fluorescent dyes calcein-AM and propidium iodide as previously described. […] The numbers of calcein-labeled live cells and propidium iodide-labeled dead neurons in several fields were visualized via fluorescence microscopy and counted as described.
Briefly, about 10 to 16 brains were removed from fetuses delivered by cesarean section, and the cortices dissected out. The neurons were isolated and suspended in DMEM/F12 supplemented with 10% FBS and plated on sterile dishes or cover slips coated with 10 μg/ml poly-D-lysine and 5 μg/ml mouse laminin. After 24 hours, the serum-containing medium was removed, and neurons were maintained in Neurobasal medium (Gibco) with 2% B-27 supplements (Gibco). Cells were maintained in culture at 37° C. in 5% CO2 and 97% humidity for 7 to 8 eight days in vitro (DIV) before use. Neurons were exposed to 0.004% DMSO or the indicated concentrations of GA or KU-1/A4 for two hours before the addition of 10 μM Aβ25-35 for either 24 or 48 hours as indicated. Stock solutions of Aβ were prepared in sterile water at a concentration of 1.3 mM and stored at −20° C. Aliquots of the stock solutions were diluted to 1 mM in sterile 50 mM Tris-HCl, pH 7.4, and incubated at 37° C. for 24 hours to promote oligomerization of the peptides prior to treatment of the neurons. The effects of KU-1/A4, GA, Aβ, or the indicated combinations on neuronal viability were determined by monitoring cell survival using the Live-Dead assay as previously described. […] Digital images from 6 fields per dish were captured, and the number of viable (green) and dead (red) cells counted. All experiments were conducted with duplicate dishes from at least two neuronal preparations for each treatment, with about 1,000 cells analyzed/treatment condition. The data are expressed as the fraction of viable cells calculated from the total number of neurons counted under each treatment condition. The significance of differences between cultures exposed to various treatment conditions was determined using Student's t-test.

The target of another series is P-glycoprotein (P-gp) (Bos taurus, UniProt A0A3Q1MB23). Nature of the series: Rhodamine 123 uptake assay in BMECs.
Chain of P-glycoprotein (P-gp) (A0A3Q1MB23 1-1267): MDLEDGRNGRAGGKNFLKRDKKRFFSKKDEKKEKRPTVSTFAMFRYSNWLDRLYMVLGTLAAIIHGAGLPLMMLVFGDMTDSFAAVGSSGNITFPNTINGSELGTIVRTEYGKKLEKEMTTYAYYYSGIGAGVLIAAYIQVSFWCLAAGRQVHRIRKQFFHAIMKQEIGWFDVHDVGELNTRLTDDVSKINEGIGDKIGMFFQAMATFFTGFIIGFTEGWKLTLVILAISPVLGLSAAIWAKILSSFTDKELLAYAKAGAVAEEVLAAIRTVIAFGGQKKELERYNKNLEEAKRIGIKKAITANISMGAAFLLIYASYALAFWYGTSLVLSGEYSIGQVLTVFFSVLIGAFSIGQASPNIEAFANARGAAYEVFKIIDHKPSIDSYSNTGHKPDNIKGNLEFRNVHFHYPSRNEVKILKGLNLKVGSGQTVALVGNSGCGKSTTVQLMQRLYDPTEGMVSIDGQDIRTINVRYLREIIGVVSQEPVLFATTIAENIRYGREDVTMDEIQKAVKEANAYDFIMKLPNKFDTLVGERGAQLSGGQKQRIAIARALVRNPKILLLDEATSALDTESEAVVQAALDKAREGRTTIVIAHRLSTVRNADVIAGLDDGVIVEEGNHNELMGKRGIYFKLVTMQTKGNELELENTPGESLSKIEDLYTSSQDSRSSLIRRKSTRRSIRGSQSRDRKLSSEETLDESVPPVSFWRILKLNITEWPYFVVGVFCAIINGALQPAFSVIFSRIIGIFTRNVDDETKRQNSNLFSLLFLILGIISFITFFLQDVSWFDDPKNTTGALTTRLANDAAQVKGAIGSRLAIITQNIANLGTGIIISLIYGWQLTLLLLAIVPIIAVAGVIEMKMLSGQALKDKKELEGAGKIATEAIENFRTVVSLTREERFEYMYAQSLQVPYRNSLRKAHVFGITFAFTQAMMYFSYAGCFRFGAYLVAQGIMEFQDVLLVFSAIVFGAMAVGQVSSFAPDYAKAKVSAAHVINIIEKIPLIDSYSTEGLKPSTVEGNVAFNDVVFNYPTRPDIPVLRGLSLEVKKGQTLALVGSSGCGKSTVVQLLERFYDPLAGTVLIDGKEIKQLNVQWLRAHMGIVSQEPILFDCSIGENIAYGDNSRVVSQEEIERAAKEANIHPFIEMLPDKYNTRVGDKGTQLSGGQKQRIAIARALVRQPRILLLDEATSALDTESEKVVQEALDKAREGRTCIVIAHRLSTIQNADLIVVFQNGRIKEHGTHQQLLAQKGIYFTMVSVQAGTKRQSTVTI

Method for P-glycoprotein (P-gp): Taxol (10 μM) was used as a positive p-glycoprotein substrate.

On to `CO[C@@H]1[C@@H](O)[C@@H](O)[C@H](Oc2ccc3cc(NC(C)=O)c(=O)oc3c2)OC1(C)C` [KU-1/A4, N-(7-((2R,3R,4S,5R)-3,4-dihydroxy-5-methoxy-6,6-dimethyl-tetrahydro-2H-pyran-2-yloxy)-2-oxo-2H-chromen-3-yl)acetamide], for which the “degradation of phosphorylated AKT (Hsp90 inhibition)” value in series [1] was “the most potent novobiocin analogues identified”. In addition, the androgen receptor levels result in series [2] is recorded as “drastically reduced levels of the androgen receptor at lower concentrations”. Also, the “lowest concentration with minor neuroprotective effects” value in series [3] (Aβ 10 μM, 48 hours) was 0.5 nM. In addition, the “lowest concentration giving (significant) protection of neurons against Aβ” value in series [3] (Aβ 10 μM, compound added 2 hours before, viability at 48 hours) amounted to 5 nM. In addition, the EC50 in series [3] (Rattus norvegicus, Primary cortical neuron, read-out: EC50, prevention of Aβ-induced toxicity, Aβ 10 μM, compound added 2 hours before, viability at 48 hours) is around 6 nM; in series [3] (read-out: EC50, prevention of Aβ-induced toxicity, Aβ 10 μM, compound added 2 hours before, viability at 48 hours) it was 5 nM. Also, the P-gp substrate result on P-glycoprotein (P-gp) is reported as “not a substrate for P-gp”. The “rhodamine 123 uptake” value on P-glycoprotein (P-gp) (rhodamine 123 5 μM, Taxol 10 μM, KU-1/A4 up to 50 μM) is reported as “no effect on uptake”.

The EC50 is the concentration at which the effect is half-maximal.
